Source: patent US20260248805A1, “DIAMINOPHENOTHIAZINE FOR THE TREATMENT OF MICROVASCULAR BRAIN DISEASE” (priority 2023, published 2026)
Entries after “also recorded” stand apart in the source; their conditions may differ.

How the values were obtained:
[1] = tested on: white matter hyperintensities (microvascular pathology); test: Phase 3 clinical trials of LMTM in AD: MRI total lesion volume (TLV) of white matter hyperintensities; format: in vivo, human; conditions: for exposure dependence of rate of progression of microvascular pathology: low dose monotherapy, FIG. 6, TLV change from baseline; for estimate: difference in increase in TLV, LMTM monotherapy vs LMTM in combination with AD symptomatic treatments: FIGS. 7A and B, no unit printed at the table; for estimate: difference in increase in Total Lesion volume (TLV), LMTM monotherapy vs LMTM in combination with symptomatic treatments for AD: AD patients, MRI
From the text: The design and results from two large Phase 3, double-blind, controlled, randomised clinical trials of hydromethylthionine in probable AD were described elsewhere. Study TRx-237-015 (clintrials.gov NCT01689246), involved 890 mild/moderate AD patients and study TRx-237-005 (clintrials.gov NCT01689233), had 800 patients with mild AD meeting NIA/AA diagnostic criteria for probable AD. Eligible patients were aged less than 90 years. Patients were excluded if they had: a recent history of poorly controlled hypertension, or clinically significant cardiovascular disease (such as hospitalization for acute coronary syndrome or symptoms consistent with angina pectoris), or a modified Hachinski ischemic score of >4. Patients were also excluded if significant vascular pathology was seen on brain MRI, including large confluent white matter hyperintensities that would lead to a diagnosis other than probable AD. A detailed list of all inclusion and exclusion criteria for both trials is available in the supplementary materials. FDG-PET was performed at baseline in only a subgroup of TRx-237-015 subjects (n=198) but was required for all participants in TRx-237-005 if the appropriate imaging facilities were available at the study site. Of 1690 participants enrolled in both studies, 794 had available FDG-PET scans at baseline.
In this trial only GE, Siemens, or Philips (1.5-Tesla and 3.0-Tesla) machines were used to reduce the variability in the imaging data. The MRI sequences utilised in this protocol were based on the ADNI protocol. The recommended range of acquisition parameters for individual sequences for GE, Siemens, and Philips MRI machines were developed after technical evaluation forms from all sites. The following sequences were included: FLAIR: This sequence allows assessment of other clinically significant focal intracranial pathology and for detection and quantification of WMHs; Unenhanced T1-weighted, 3-dimensional sequence (e.g., MP RAGE or SPGR) were used for evaluation of the whole brain, ventricular and hippocampal volumes and WMH.
Brain MRI derived WMHs were quantified using the Lesion Growth Algorithm (LGA) part of the Lesion Segmentation Toolbox (LST [28]) which is an automated method for extracting WMH and has been validated in various datasets. This algorithm uses T1 and FLAIR MR images to classify voxels, with T1 images used to segment tissue classes white matter (WM), grey matter (GM), cerebrospinal fluid (CSF) and fluid attenuated inversion recovery (FLAIR) imaging used to determine areas of hyperintense signal (i.e., WMH). WMH data are provided as whole-brain total lesion volume (TLV), measured in cm^3.
Exposure dependence groups were defined in accordance with the methods described in more detail in WO2020/020751 discussed hereinbefore.

[2] = tested on: Alzheimer's disease; conditions: monotherapy vs combination with AChEIs and/or memantine; cited from earlier work
[3] = cited from earlier work
[4] = compared with the MT+ form; cited from earlier work
[5] = biological target: tau aggregation (Homo sapiens, UniProt P10636); conditions: in vitro (LMTM: in vitro and in vivo); cited from earlier work
[6] = tested on: PHFs from Alzheimer's disease brain tissue; conditions: cited from earlier work
[7] = tested on: tau pathology; conditions: transgenic mouse tau models; brain concentrations consistent with human oral dosing; cited from earlier work

Chain of tau aggregation (P10636 whole entry): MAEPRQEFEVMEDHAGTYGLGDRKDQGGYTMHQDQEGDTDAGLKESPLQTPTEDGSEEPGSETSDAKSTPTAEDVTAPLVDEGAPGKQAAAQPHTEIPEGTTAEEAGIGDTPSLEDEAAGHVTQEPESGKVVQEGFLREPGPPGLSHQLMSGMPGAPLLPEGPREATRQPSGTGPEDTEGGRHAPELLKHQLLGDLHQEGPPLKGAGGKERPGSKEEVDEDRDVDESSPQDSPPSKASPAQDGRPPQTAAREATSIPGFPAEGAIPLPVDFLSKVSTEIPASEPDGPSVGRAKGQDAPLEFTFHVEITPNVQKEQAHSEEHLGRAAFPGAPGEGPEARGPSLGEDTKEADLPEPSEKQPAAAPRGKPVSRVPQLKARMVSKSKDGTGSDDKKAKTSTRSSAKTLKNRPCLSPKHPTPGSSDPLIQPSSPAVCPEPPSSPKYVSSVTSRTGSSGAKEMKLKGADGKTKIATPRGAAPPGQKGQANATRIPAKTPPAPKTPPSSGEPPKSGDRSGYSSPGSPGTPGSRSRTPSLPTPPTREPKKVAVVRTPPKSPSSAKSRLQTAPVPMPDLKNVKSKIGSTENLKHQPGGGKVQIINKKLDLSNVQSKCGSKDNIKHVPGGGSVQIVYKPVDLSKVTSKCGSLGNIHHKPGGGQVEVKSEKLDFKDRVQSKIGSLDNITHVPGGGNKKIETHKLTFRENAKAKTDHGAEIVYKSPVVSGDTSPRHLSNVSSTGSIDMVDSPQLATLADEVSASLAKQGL

For `CN(C)c1ccc2c(c1)Sc1cc(N(C)C)ccc1N2` [LMT, N3,N3,N7,N7-tetramethyl-10H-phenothiazine-3,7-diamine], the “exposure dependence of rate of progression of microvascular pathology” value [1] was “exposure-dependent reduction in progression of microvascular pathology”.
In the case of `CN(C)c1ccc2c(c1)Sc1cc(N(C)C)ccc1N2.CS(=O)(=O)O.CS(=O)(=O)O` [LMTM, N,N,N′,N′-tetramethyl-10H-phenothiazine-3,7-diaminium bis(hydromethanesulfonate)], the “treatment benefit in AD according to the trial criteria” value [2] is listed as “restricted to patients taking LMTM as monotherapy”, the “estimate: difference in increase in TLV, LMTM monotherapy vs LMTM in combination with AD symptomatic treatments” value ([1]; 4 mg b.i.d. (low dose group)) is listed as −0.3494 and the “estimate: difference in increase in Total Lesion volume (TLV), LMTM monotherapy vs LMTM in combination with symptomatic treatments for AD” value ([1]; 4 mg b.i.d. (low dose)) is listed as -0.3494 mL. For the same compound, the “estimate: difference in increase in Total Lesion volume (TLV), LMTM monotherapy vs LMTM in combination with symptomatic treatments for AD” value ([1]; 100 mg b.i.d. (high dose)) was -0.3865 mL, the “estimate: difference in increase in TLV, LMTM monotherapy vs LMTM in combination with AD symptomatic treatments” value ([1]; 100 mg b.i.d., high dose (mean of high doses, 150-250 mg/day)) was −0.3865 and the “increase in Total Lesion volume, monotherapy vs combination with symptomatic treatments for AD” value ([1]; high dose and low dose groups, statistically significant difference) was “less increase in Total Lesion volume; also recorded: less increase in TLV”. The “exposure dependence of rate of progression of microvascular pathology” value [1] was “exposure-dependent difference in rate of progression of microvascular pathology”, the “pharmaceutic properties: solubility and pKa” value [3] was “superior pharmaceutic properties in terms of solubility and pKa” and the “absorption” value [4] was “not subject to the absorption limitations of the MT^+ form”. The “tau aggregation inhibitor activity” value [5] was “retains TAI activity in vitro and in vivo”.
For `CN(C)c1ccc2nc3ccc(=[N+](C)C)cc-3sc2c1` [MT, Methylthioninium], the “dissolution of PHFs” value [6] is given as “dissolves PHFs from Alzheimer's disease brain tissue”, the “tau aggregation inhibitor activity” value [5] is given as “acts as a tau aggregation inhibitor in vitro” and the “tau pathology and behavioural deficits” value [7] is given as “reduces tau pathology and associated behavioural deficits”.
